Values of other authors as cited in patent US20140271529A1, “ANTIFUNGAL COMPOSITIONS FOR THE TREATMENT OF SECONDARY SKIN AND NAIL INFECTIONS” (ALC Therapeutics, LLC, priority 2013, published 2014).

Assays:
[1] = 14C-labelled griseofulvin dissolved in the solvent; human skin in vitro
[2] = human, in vivo

Row | Compound | ratios of penetration of griseofulvin in the various solvents [1] | acute paronychia, patients affected [2]
1 | C[S+](C)[O-] [DMSO, dimethylsulfoxide] | 60 | –
2 | CCO [alcohol] | 3 | –
3 | c1ccccc1 [benzene] | 1 | –
4 | CN(C)C=O [dimethylformamide] | 7 | –
5 | panitumumab | – | ≤ 45%
